In US8088791B2, “Antibacterial agents” (Biots Scientific Management Pty Ltd, priority 2006, dated 2012):
Converted amounts (≈) assume the structure as drawn. Read-outs that look alike come from different tables or passages of the source.

Legend:
Format in all cases: cell-based
Bacillus subtilis 168CA = test: Minimum Inhibitory Concentration (MIC) testing, broth microdilution, Bacillus subtilis; settings: read-out: Bacillus subtilis MICs Activity
Outline: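 Broth microdilution followed NCCLS M7-A5, in rich broth such as Mueller Hinton, inoculum at OD 0.09 diluted 1:100, compounds in 1.6% DMSO before inoculum. After 16–20 h at 37 °C, MIC was the lowest concentration without visible growth. Score A: ≦8 μg/ml, B: 16–64 μg/ml, C: >64 μg/ml.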

[1] = test system: Staphylococcus aureus ATCC29213; test: Minimum Inhibitory Concentration (MIC) testing, broth microdilution, Staphylococcus aureus; settings: Staphylococcus aureus ATCC29213; read-out: Staphylococcus aureus MICs Activity
Outline: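 Broth microdilution per NCCLS M7-A5 in Mueller Hinton broth, with compound in 1.6% DMSO and inoculum at OD 0.09 diluted 1:100. Plates incubated 16–20 h at 37°C. MIC is the lowest concentration with no visible growth; scored A ≤8, B 16–64, C >64 μg/ml.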

[2] = test system: various bacterial species; test: Minimum Inhibitory Concentration (MIC) testing, broth microdilution, other bacterial species
Protocol: Compounds of this invention were tested for antimicrobial activity by susceptibility testing in liquid media. MICs for compounds against each strain were determined by a broth microdilution method according to the National Committee for Clinical Laboratory Standards (NCCLS) guidelines. (NCCLS. 2000. Methods for dilution antimicrobial susceptibility tests for bacteria that grow aerobically—fifth edition. Approved standard M7-A5. NCCLS, Wayne, Pa.)
Briefly, test compounds are prepared in 100 μl of 1.6% DMSO solution in multiwell plates. Several bacterial colonies from a freshly streaked plate are transferred to an appropriate rich broth, such as Mueller Hinton. The cell suspension is adjusted to an optical density of 0.09 and further diluted 1:100 with warm 2× broth. This cell suspension is dispensed into the wells containing compound solution so that the final volume is 200 μl. The plates are incubated overnight (16-20 hours) at 37° C. and turbidity is scored by eye and quantified spectrophotometrically. The MIC is defined as the lowest concentration inhibiting visible growth.
Some of the Examples were also tested for activity against other bacterial species. […] Activities were again scored as ‘A’ if the MIC was ≦8 micrograms/ml, ‘B’ if the MIC was 16 to 64 micrograms/ml and ‘C’ if the MIC was greater than 64 micrograms/ml.

[3] = Staphylococcus epidermidis, ATCC12228, read-out: MIC Activity Staphylococcus epidermidis ATCC 12228
[4] = Staphylococcus saprophyticus, ATCC15305, read-out: MIC Activity Staphylococcus saprophyticus ATCC 15305
[5] = Staphylococcus haemolyticus, ATCC29970, read-out: MIC Activity Staphylococcus haemolyticus ATCC 29970

Row | Structure (SMILES) | MIC (Bacillus subtilis 168CA; Bacillus subtilis 168CA) [µg/mL] | MIC [1] [µg/mL] | further results
1 | C#CCCCCCCCCCOc1cccc(C(N)=O)c1 [Example 46, 3-(10-Undecynyloxy)benzenecarboxamide] | < 8 | < 8 | MIC [2, 3]: < 8 µg/mL
2 | CCCC/C=C\CCCCOc1ccc(F)c(C(N)=O)c1F [Example 87, 2,6-Difluoro-3-[(Z)-5-decenyloxy]benzenecarboxamide] | < 8 | < 8 | MIC [2, 3]: < 8 µg/mL
3 | NC(=O)c1c(F)ccc(OCc2ccc3ccc(Cl)cc3n2)c1F [Example 111, 3-(7-Chloro-quinolin-2-ylmethoxy)-2,6-difluoro-benzamide] | < 8 | < 8 | MIC [2, 4]: < 8 µg/mL
4 | NC(=O)c1c(F)ccc(OCc2nc3cc(-c4ccccc4)ccc3s2)c1F [Example 114, 2,6-Difluoro-3-(5-phenyl-benzothiazol-2-ylmethoxy)-benzamide] | < 8 | < 8 | MIC ([2]; Bacillus cereus, ATCC14579, read-out: MIC Activity Bacillus cereus ATCC 14579): < 8 µg/mL; MIC [2, 4]: < 8 µg/mL
5 | NC(=O)c1c(F)ccc(OCc2nc(-c3ccccc3)co2)c1F [Example 310, 2,6-Difluoro-3-(4-phenyl-oxazol-2-ylmethoxy)-benzamide] | < 8 | 16 to 64 (≈ 48.4 to 194 µM) | –
6 | NC(=O)c1c(F)ccc(OCc2nc(-c3ccc(O)cc3)co2)c1F [Example 312, 2,6-Difluoro-3-[4-(4-hydroxy-phenyl)-oxazol-2-ylmethoxy]-benzamide] | 16 to 64 (≈ 46.2 to 185 µM) | < 8 | –
7 | NC(=O)c1c(F)ccc(OCc2nc3cc(C4CCCCC4)ccc3s2)c1F [Example 315] | < 8 | < 8 | –
8 | NC(=O)c1c(F)ccc(OCc2nc3cc(C4=CCCC4)ccc3s2)c1F [Example 316] | – | < 8 | MIC (Bacillus subtilis 168CA; Bacillus subtilis, 168CA): < 8 µg/mL
9 | NC(=O)c1c(F)ccc(OCc2nc3cc(C4CCCC4)ccc3s2)c1F [Example 317] | < 8 | < 8 | –
10 | NC(=O)c1c(F)ccc(OCc2nc(-c3ccc(C(F)(F)F)cc3)cs2)c1F [Example 319, 2,6-Difluoro-3-[4-(4-trifluoromethyl-phenyl)-thiazol-2-ylmethoxy]-benzamide] | < 8 | < 8 | –
11 | NC(=O)c1c(F)ccc(OCc2nc(-c3ccc(OC(F)(F)F)cc3)cs2)c1F [Example 320, 2,6-Difluoro-3-[4-(4-trifluoromethoxy-phenyl)-thiazol-2-ylmethoxy]-benzamide] | < 8 | < 8 | –
12 | NC(=O)c1c(F)ccc(OCc2nc(-c3ccc4c(c3)OCO4)no2)c1F [Example 322, 3-(3-Benzo[1,3]dioxol-5-yl-[1,2,4]oxadiazol-5-ylmethoxy)-2,6-difluoro-benzamide] | < 8 | < 8 | –
13 | COc1ccc(-c2nc(COc3ccc(F)c(C(N)=O)c3F)cs2)cc1 [Example 323, 2,6-Difluoro-3-[2-(4-methoxy-phenyl)-thiazol-4-ylmethoxy]-benzamide] | < 8 | < 8 | –
14 | CC(Oc1ccc(F)c(C(N)=O)c1F)c1nc(-c2ccc(Cl)cc2)no1 (stereo not shown) [Example 324, 3-{1-[3-(4-Chloro-phenyl)-[1,2,4]oxadiazol-5-yl]-ethoxy}-2,6-difluoro-benzamide] | < 8 | < 8 | –
15 | Cc1nn(-c2ccccc2)nc1COc1ccc(F)c(C(N)=O)c1F [Example 325, 2,6-Difluoro-3-(5-methyl-2-phenyl-2H-[1,2,3]triazol-4-ylmethoxy)-benzamide] | < 8 | 16 to 64 (≈ 46.5 to 186 µM) | –
16 | NC(=O)c1c(F)ccc(OCc2nc(-c3nccs3)no2)c1F [Example 326, 2,6-Difluoro-3-(3-thiazol-2-yl-[1,2,4]oxadiazol-5-ylmethoxy)-benzamide] | 16 to 64 (≈ 47.3 to 189 µM) | 16 to 64 (≈ 47.3 to 189 µM) | –
17 | NC(=O)c1c(F)ccc(OCc2nc3cc(Oc4ccccc4)ccc3s2)c1F [Example 327, 2,6-Difluoro-3-(5-phenoxy-benzothiazol-2-ylmethoxy)-benzamide] | < 8 | < 8 | –
18 | NC(=O)c1c(F)ccc(OCc2cccc(Cl)c2)c1F [Example 331, 3-(3-Chloro-benzyloxy)-2,6-difluoro-benzamide] | < 8 | 16 to 64 (≈ 53.7 to 215 µM) | –
19 | Cc1ccc(-c2nc(CCOc3ccc(F)c(C(N)=O)c3F)c(C)o2)cc1 [Example 333, 2,6-Difluoro-3-[2-(5-methyl-2-p-tolyl-oxazol-4-yl)-ethoxy]-benzamide] | < 8 | < 8 | –
20 | NC(=O)c1c(F)ccc(OCc2nc(-c3cccc(O)c3)cs2)c1F [Example 334, 2,6-Difluoro-3-[4-(3-hydroxy-phenyl)-thiazol-2-ylmethoxy]-benzamide] | 16 to 64 (≈ 44.2 to 177 µM) | < 8 | –

The next lines start with results.

Row | MIC (Bacillus subtilis 168CA; Bacillus subtilis 168CA) [µg/mL] | MIC [1] [µg/mL] | Structure (SMILES) | further results
21 | < 8 | < 8 | CCCCCC/C=C/COc1ccc(F)c(C(N)=O)c1F [Example 84, 2,6-Difluoro-3-[(E)-2-nonenyloxy]benzenecarboxamide] | MIC [2, 3]: < 8 µg/mL
22 | < 8 | < 8 | C#CCCCCCCCCCOc1ccc(F)c(C(N)=O)c1F [Example 88, 2,6-Difluoro-3-(10-undecynyloxy)benzenecarboxamide] | MIC [2, 3]: < 8 µg/mL
23 | < 8 | < 8 | CCCc1ccc2sc(COc3ccc(F)c(C(N)=O)c3F)nc2c1 [Example 135, 2,6-Difluoro-3-(5-propyl-benzothiazol-2-ylmethoxy)-benzamide] | MIC [2, 5]: < 8 µg/mL
24 | < 8 | < 8 | NC(=O)c1c(F)ccc(OCc2nc3cc(Cl)cnc3s2)c1F [Example 139, 3-(6-Chloro-thiazolo[5,4-b]pyridin-2-ylmethoxy)-2,6-difluoro-benzamide] | MIC [2, 3]: < 8 µg/mL; MIC [2, 5]: < 8 µg/mL
25 | < 8 | < 8 | CCCCCCCCCOc1cccc(C(N)=O)c1F [Example 175, 2-Fluoro-3-(nonyloxy)benzenecarboxamide] | MIC [2, 3]: < 8 µg/mL
26 | < 8 | < 8 | C#CCCCCCCCCCOc1cccc(C(N)=O)c1F [Example 177, 2-Fluoro-3-(10-undecynyloxy)benzenecarboxamide] | MIC [2, 3]: < 8 µg/mL
27 | < 8 | 16 to 64 (≈ 44.2 to 177 µM) | NC(=O)c1c(F)ccc(OCc2csc(-c3cccc(O)c3)n2)c1F [Example 308, 2,6-Difluoro-3-[2-(3-hydroxy-phenyl)-thiazol-4-ylmethoxy]-benzamide] | –
28 | < 8 | < 8 | NC(=O)c1c(F)ccc(OCc2nc(-c3ccc(Cl)cc3)co2)c1F [Example 309, 3-[4-(4-Chloro-phenyl)-oxazol-2-ylmethoxy]-2,6-difluoro-benzamide] | –
29 | < 8 | < 8 | COC(=O)c1sc(COc2ccc(F)c(C(N)=O)c2F)nc1-c1ccc(OC)cc1 [Example 313, 2-(3-Carbamoyl-2,4-difluoro-phenoxymethyl)-4-(4-methoxy-phenyl)-thiazole-5-carboxylic acid methyl ester] | –
30 | < 8 | 16 to 64 (≈ 40 to 160 µM) | NC(=O)c1c(F)ccc(OCc2nc3cc(C4=CCCCC4)ccc3s2)c1F [Example 314] | –
31 | < 8 | < 8 | NC(=O)c1c(F)ccc(OCc2nc(-c3ccc(F)cc3)cs2)c1F [Example 318, 2,6-Difluoro-3-[4-(4-fluoro-phenyl)-thiazol-2-ylmethoxy]-benzamide] | –
32 | < 8 | < 8 | COC(=O)c1ccc2nc(COc3ccc(F)c(C(N)=O)c3F)sc2c1 [Example 321, 2-(3-Carbamoyl-2,4-difluoro-phenoxymethyl)-benzothiazole-6-carboxylic acid methyl ester] | –
